The text below walks through data of publication PMC10782561 (Chemico-biological interactions, 2023).

The format of series [1] is in vivo, human.
In series [2] the target is human CYP1A2 (Homo sapiens, UniProt P05177). As to the kind of experiment: Phe inhibition of human CYP1A2, P450-Glo assay. Type of series: biochemical.
Series [3] relates to Salmonella strains TA100, TA 97a, TA98 and TA102. The note with it: cited from earlier work.
[4] abbreviates: [14C]-BaP metabolite in human plasma, 0-48 h, BaP + Phe dose, mean ± SD.
Where [5] appears, read: [14C]-BaP metabolite in human plasma, 0-48 h, BaP only dose, mean ± SD.
[6] abbreviates: [14C]-BaP metabolite in human plasma, BaP + Phe dose, mean ± SD.
[7] abbreviates: [14C]-BaP metabolite in human plasma, BaP only dose, mean ± SD.

Like-named read-outs stand apart in the source and are kept apart here.

human CYP1A2, sequence (P05177 whole entry): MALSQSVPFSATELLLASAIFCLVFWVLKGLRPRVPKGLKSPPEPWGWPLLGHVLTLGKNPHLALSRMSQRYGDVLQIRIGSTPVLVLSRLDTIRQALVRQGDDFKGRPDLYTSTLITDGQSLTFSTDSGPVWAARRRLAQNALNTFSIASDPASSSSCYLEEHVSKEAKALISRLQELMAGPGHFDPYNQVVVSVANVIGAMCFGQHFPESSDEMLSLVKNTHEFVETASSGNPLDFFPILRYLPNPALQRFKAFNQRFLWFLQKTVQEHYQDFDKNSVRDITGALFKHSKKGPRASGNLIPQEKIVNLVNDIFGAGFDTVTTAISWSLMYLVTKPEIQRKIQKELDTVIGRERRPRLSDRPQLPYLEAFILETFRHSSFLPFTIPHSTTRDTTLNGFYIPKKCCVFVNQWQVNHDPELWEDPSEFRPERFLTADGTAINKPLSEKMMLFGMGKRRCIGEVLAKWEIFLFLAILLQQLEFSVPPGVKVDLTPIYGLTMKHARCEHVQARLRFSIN

The Tmax is the time from dosing to the highest level. On to `Oc1ccc2ccc3c4ccccc4cc4ccc1c2c43` [3-OH], for which, in series [1] (setting [4]), the AUC turned out to be 5.90 ± 4.33 fg BaP/mL×h. Moreover, the AUC in series [1] (setting [5]) is 9.99 ± 7.43 fg BaP/mL×h. In series [1] (setting [6]), the “AUC(0,∞)” value is listed as 5.90 ± 4.33 fg BaP/mL×h, the Cmax was found to be 2.00 ± 1.03 fg BaP/mL, the T1/2 is given as 1.59 ± 0.36 h and the Tmax was 2.2 ± 0.8 h. In addition, in series [1] (setting [7]), the “AUC(0,∞)” value was 9.99 ± 7.43 fg BaP/mL×h, the Cmax is reported as 4.85 ± 3.31 fg BaP/mL, the T1/2 was 1.85 ± 0.56 h and the Tmax is listed as 1.7 ± 0.8 h.
Regarding `Oc1ccc2cc3ccc4cccc5ccc(c2c1)c3c45` [9-OH], in series [1] (setting [4]), the AUC is listed as 0.74 ± 0.82 fg BaP/mL×h. Besides, in series [1] (setting [5]), the AUC is listed as 3.40 ± 3.83 fg BaP/mL×h. Further, in series [1] (setting [6]), the “AUC(0,∞)” value is 0.74 ± 0.82 fg BaP/mL×h, the Cmax is on record as 0.66 ± 0.38 fg BaP/mL, the T1/2 is given as 1.40 ± 0.49 h and the Tmax was 2.0 ± 0.7 h. Moreover, in series [1] (setting [7]), the “AUC(0,∞)” value worked out at 3.40 ± 3.83 fg BaP/mL×h, the Cmax is on record as 2.32 ± 2.36 fg BaP/mL, the T1/2 is 1.33 ± 0.39 h and the time to peak (Tmax) stood at 1.4 ± 0.7 h.
What is called Ki is a measure of affinity in units of concentration, obtained from inhibition or displacement. `c1ccc2c(c1)ccc1ccccc12` [Phe, phenanthrene] came in with a Ki in series [2] of 12.6 µM. Besides, the “type of inhibition of hCYP1A2” value in series [2] (Lineweaver-Burk plot) is “competitive”.
For orientation: Vd means the apparent volume that relates the amount in the body to the concentration in plasma or blood. The low end stands for confinement near the circulation, the high end for extensive tissue distribution. What is called half-life is the time in which the quantity being followed falls by half. Higher therefore signals slow loss. Take `c1ccc2c(c1)cc1ccc3cccc4ccc2c1c34` [[^14C]-BaP, benzo[a]pyrene]: in series [1] (both, human, in vivo), the Cl was found to be 3707 ± 2267 L/h and the Vd is recorded as 17550 ± 9725 L. In series [1] (both, human, in vivo, T1/2), this compound had a half-life of 4.78 ± 4.45 h. Moreover, the Tmax in series [1] (both, human, in vivo, Tmax) was determined as 1.1 ± 1.1 h. Moreover, the half-life in series [1] (both, human, in vivo, po, T1/2 in blood) was 1.1 ± 1.1 h. In series [1] (human, in vivo), the AUC was determined as 17.88 ± 9.56 fg BaP/mL×h and the “AUC(0,∞)” value turned out to be 17.88 ± 9.56 fg BaP/mL×h.
In the case of `O[C@H]1C=Cc2c(cc3ccc4cccc5ccc2c3c45)[C@@H]1O` (racemic) [7,8-dihydrodiol, (±) trans-benzo[a]pyrene-7,8-dihydrodiol], the AUC in series [1] (setting [4]) worked out at 10.53 ± 9.26 fg BaP/mL×h. Moreover, the AUC in series [1] (setting [5]) was 28.04 ± 34.04 fg BaP/mL×h. For the same compound, in series [1] (setting [6]), the “AUC(0,∞)” value was determined as 10.53 ± 9.26 fg BaP/mL×h, the Cmax is listed as 2.54 ± 2.07 fg BaP/mL, the T1/2 turned out to be 2.25 ± 0.55 h and the Tmax was determined as 2.3 ± 1.2 h. For the same compound, in series [1] (setting [7]), the “AUC(0,∞)” value is on record as 28.04 ± 34.04 fg BaP/mL×h, the Cmax amounted to 4.12 ± 3.04 fg BaP/mL, the T1/2 stood at 4.72 ± 4.18 h and the time to peak (Tmax) is on record as 1.7 ± 0.8 h.
In the case of `Cc1cccc2c1ccc1cc(C(C)C)ccc12` [Retene, 7-isopropyl-1-methylphenanthrene], the mutagenicity entry in series [3] is listed as “negative”.
